Experiment in all cases: cell-based
In assay [1] the target is hNav1.4 (Homo sapiens, UniProt P35499). The note with it: for IC50: PatchXpress, read-out: PX hNav1.4 Tonic IC50.
Assay [2] addresses hNav1.5 (Homo sapiens, UniProt Q14524). The note with it: for IC50: PatchXpress, * = at high concentrations compound would wash off slowly or not at all, read-out: PX hNav1.5 Tonic IC50.
Assay [3] deals with hNav1.7 (Homo sapiens, UniProt Q15858). The class given is cell-based. Conditions: PatchXpress, tonic block; read-out: PX hNav1.7 Tonic IC50.
Setting [4] is: * = at high concentrations compound would wash off slowly or not at all.

Among the data in patent US9636418B2 (priority 2013, dated 2017) are Nav1.4/Nav1.7, IC50 and Nav1.5/Nav1.7 values, retold here.

Several values for one entry are separate records, joined by “and”; a condition that tells them apart may be missing. Identical values can stand only once. Like-named read-outs stand apart in the source and are kept apart here.

What is called IC50 is the midpoint of a concentration-inhibition curve.

Sequence of hNav1.4 (P35499 whole entry): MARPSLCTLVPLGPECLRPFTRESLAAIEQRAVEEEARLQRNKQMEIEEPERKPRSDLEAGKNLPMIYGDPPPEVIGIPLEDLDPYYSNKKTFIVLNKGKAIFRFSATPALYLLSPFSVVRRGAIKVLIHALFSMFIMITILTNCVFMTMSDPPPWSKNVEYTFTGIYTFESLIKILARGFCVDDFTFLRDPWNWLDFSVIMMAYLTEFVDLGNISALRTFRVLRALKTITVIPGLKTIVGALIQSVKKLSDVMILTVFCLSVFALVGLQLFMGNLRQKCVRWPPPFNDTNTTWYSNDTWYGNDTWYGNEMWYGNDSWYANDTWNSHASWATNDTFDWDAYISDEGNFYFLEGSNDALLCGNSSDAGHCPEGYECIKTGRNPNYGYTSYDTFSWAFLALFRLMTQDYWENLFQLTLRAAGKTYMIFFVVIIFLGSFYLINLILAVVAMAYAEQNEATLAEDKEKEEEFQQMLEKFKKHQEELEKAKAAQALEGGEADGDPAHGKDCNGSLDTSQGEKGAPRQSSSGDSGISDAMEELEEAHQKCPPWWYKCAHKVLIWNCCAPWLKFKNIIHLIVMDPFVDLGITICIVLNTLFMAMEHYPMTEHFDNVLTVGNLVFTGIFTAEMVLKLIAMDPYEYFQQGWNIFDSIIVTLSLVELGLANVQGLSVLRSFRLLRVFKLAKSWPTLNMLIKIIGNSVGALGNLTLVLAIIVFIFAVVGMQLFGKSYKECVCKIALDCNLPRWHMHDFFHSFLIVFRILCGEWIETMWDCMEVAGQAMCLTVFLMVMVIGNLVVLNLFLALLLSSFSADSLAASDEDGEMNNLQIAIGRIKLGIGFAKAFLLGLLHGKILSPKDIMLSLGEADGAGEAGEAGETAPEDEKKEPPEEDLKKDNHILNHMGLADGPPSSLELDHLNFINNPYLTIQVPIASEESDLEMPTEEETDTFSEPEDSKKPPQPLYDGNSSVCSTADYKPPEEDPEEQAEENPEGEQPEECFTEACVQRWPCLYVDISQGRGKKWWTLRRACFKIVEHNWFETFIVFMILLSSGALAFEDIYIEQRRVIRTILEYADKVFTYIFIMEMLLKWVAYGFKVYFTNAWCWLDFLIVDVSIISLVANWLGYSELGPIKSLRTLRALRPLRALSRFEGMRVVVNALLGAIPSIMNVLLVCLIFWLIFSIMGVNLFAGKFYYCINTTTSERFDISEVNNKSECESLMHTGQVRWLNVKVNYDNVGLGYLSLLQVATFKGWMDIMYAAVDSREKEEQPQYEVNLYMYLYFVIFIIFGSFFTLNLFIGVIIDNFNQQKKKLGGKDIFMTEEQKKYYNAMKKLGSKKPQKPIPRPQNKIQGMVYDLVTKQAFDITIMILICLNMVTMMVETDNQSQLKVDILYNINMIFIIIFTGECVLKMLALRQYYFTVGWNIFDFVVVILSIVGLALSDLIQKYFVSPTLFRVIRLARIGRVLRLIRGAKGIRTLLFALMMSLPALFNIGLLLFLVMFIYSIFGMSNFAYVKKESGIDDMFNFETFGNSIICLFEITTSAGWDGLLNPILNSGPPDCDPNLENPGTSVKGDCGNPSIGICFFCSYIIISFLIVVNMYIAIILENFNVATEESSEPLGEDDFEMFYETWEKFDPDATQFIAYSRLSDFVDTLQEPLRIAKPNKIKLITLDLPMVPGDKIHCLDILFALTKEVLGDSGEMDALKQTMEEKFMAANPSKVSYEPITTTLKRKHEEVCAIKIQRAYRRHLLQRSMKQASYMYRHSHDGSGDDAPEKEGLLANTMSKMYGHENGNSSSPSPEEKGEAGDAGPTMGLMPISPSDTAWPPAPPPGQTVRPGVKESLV
Sequence of hNav1.7 (Q15858 whole entry): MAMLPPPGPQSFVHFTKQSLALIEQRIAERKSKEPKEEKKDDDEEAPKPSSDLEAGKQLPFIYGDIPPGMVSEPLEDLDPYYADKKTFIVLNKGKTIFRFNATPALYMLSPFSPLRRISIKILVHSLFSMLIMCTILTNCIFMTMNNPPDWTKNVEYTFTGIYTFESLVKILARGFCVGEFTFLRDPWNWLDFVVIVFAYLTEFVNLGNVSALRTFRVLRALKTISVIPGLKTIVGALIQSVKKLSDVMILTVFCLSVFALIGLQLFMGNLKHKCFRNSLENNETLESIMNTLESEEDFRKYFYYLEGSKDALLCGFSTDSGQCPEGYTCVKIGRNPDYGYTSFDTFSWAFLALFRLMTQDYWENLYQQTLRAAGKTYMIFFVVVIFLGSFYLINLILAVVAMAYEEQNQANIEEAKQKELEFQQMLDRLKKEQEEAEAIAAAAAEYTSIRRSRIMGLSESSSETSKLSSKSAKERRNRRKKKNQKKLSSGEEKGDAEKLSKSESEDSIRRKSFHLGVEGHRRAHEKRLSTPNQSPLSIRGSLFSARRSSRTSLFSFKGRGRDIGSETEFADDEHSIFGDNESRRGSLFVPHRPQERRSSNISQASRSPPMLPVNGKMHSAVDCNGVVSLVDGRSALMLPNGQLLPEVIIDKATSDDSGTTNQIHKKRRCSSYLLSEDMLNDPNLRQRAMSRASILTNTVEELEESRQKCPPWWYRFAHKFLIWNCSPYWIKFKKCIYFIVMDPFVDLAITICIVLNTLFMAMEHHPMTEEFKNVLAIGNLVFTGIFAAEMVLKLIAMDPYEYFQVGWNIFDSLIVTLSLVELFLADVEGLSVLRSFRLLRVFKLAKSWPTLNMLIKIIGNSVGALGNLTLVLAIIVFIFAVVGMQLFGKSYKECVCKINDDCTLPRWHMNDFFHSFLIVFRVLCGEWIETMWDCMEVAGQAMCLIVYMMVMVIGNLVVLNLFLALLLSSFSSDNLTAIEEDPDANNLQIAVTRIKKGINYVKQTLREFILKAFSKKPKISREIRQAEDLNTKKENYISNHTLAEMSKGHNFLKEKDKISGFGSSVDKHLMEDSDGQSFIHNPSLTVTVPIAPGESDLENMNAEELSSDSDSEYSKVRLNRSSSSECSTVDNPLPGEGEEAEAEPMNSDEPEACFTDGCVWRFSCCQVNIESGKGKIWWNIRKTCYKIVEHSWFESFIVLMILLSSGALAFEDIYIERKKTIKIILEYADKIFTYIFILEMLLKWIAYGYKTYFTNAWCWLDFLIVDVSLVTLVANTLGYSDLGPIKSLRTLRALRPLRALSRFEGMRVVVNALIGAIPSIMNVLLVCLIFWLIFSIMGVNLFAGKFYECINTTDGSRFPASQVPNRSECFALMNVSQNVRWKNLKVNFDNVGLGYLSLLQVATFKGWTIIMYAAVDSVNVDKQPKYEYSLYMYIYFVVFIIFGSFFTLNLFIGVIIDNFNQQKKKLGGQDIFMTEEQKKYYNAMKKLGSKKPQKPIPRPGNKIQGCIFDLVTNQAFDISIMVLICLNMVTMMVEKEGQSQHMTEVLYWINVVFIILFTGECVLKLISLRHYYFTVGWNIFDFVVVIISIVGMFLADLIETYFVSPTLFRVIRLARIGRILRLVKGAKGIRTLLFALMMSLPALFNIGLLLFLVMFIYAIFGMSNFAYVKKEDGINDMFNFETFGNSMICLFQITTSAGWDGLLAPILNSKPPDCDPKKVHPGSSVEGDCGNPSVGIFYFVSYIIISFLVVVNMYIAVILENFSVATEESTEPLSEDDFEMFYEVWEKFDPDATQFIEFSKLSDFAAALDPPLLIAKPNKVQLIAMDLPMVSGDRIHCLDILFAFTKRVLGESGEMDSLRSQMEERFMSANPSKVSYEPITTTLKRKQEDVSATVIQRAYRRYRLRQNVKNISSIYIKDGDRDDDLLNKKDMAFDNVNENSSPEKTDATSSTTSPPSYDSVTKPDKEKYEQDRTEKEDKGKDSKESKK

As to `CCCC[C@@H]1NC(=O)[C@H](Cc2c[nH]c3ccccc23)NC(=O)[C@H](CCCCN)NC(=O)[C@H](CCC(N)=O)NC(=O)[C@@H](NC(=O)[C@H](Cc2ccc(O)cc2)NC(=O)[C@@H](N)Cc2cn(CCOCCOCCOCCOCCOCCOCCOCCOCCOCCOCCOCCOCCOCCOCCOCCOCCOCCOCCOCCOCCOCCOCCOCCNC(=O)c3cc(CNC(=O)CSCc4ccccc4)cc(C(=O)NCCOCCOCCOCCOCCOCCOCCOCCOCCOCCOCCOCCOCCOCCOCCOCCOCCOCCOCCOCCOCCOCCOCCOCCn4cc(C[C@H](N)C(=O)N[C@@H](Cc5ccc(O)cc5)C(=O)N[C@H]5CSSC[C@@H]6NC(=O)[C@@H]7CSSC[C@@H](C(=O)N[C@@H](CCCNC(=N)N)C(=O)N[C@@H](CCCCN)C(=O)N[C@H](C(=O)N[C@H](C(N)=O)[C@@H](C)CC)[C@@H](C)CC)NC(=O)[C@H](Cc8c[nH]c9ccccc89)NC(=O)[C@H](CC(C)C)NC(=O)[C@H](CCCCN)NC(=O)[C@H](CSSC[C@H](NC(=O)[C@H]([C@@H](C)O)NC(=O)[C@H](Cc8c[nH]c9ccccc89)NC(=O)[C@H](CCCC)NC(=O)[C@H](Cc8c[nH]c9ccccc89)NC(=O)[C@H](CCCCN)NC(=O)[C@H](CCC(N)=O)NC5=O)C(=O)N[C@@H](CC(=O)O)C(=O)N[C@@H](CO)C(=O)N[C@@H](CCCCN)C(=O)N[C@@H](CCCNC(=N)N)C(=O)N[C@@H](C)C(=O)N7)NC(=O)[C@H](CCCNC(=N)N)NC(=O)[C@H](CC(C)C)NC(=O)CNC(=O)[C@H](CCC(=O)O)NC6=O)nn4)c3)nn2)CSSC[C@@H]2NC(=O)[C@@H]3CSSC[C@@H](C(=O)N[C@@H](CCCNC(=N)N)C(=O)N[C@@H](CCCCN)C(=O)N[C@H](C(=O)N[C@H](C(N)=O)[C@@H](C)CC)[C@@H](C)CC)NC(=O)[C@H](Cc4c[nH]c5ccccc45)NC(=O)[C@H](CC(C)C)NC(=O)[C@H](CCCCN)NC(=O)[C@H](CSSC[C@H](NC(=O)[C@H]([C@@H](C)O)NC(=O)[C@H](Cc4c[nH]c5ccccc45)NC1=O)C(=O)N[C@@H](CC(=O)O)C(=O)N[C@@H](CO)C(=O)N[C@@H](CCCCN)C(=O)N[C@@H](CCCNC(=N)N)C(=O)N[C@@H](C)C(=O)N3)NC(=O)[C@H](CCCNC(=N)N)NC(=O)[C@H](CC(C)C)NC(=O)CNC(=O)[C@H](CCC(=O)O)NC2=O` [Homodimeric Conjugate No. 2, Bis-{Atz(PEG23*)-[Nle6]JzTx-V(1-29)}-5-((2-(benzylthio)acetamido)methyl)isophthalamide], the Nav1.4/Nav1.7 in assay [1] (ratio of PX IC50 values) was 5 and 3. The IC50 in assay [2] was 0.72 µM and 1.18 µM.

In the case of `CSCC[C@@H]1NC(=O)[C@H](Cc2c[nH]c3ccccc23)NC(=O)[C@H](CCCCN)NC(=O)[C@H](CCC(N)=O)NC(=O)[C@@H](NC(=O)[C@@H](N)Cc2ccc(O)cc2)CSSC[C@@H]2NC(=O)[C@@H]3CSSC[C@@H](C(=O)N[C@@H](CCCCN)C(=O)N[C@@H](Cc4ccc(O)cc4)C(=O)N[C@@H](CC(N)=O)C(=O)N[C@@H](CC(C)C)C(N)=O)NC(=O)[C@H](Cc4c[nH]c5ccccc45)NC(=O)[C@H](CC(C)C)NC(=O)[C@H](CCC(=O)O)NC(=O)[C@H](CSSC[C@H](NC(=O)[C@H]([C@@H](C)O)NC(=O)[C@H](Cc4c[nH]c5ccccc45)NC1=O)C(=O)N[C@@H](CC(=O)O)C(=O)N[C@@H](CO)C(=O)N[C@@H](CCC(=O)O)C(=O)N[C@@H](CCCNC(=N)N)C(=O)N[C@@H](CCCCN)C(=O)N3)NC(=O)[C@H](C(C)C)NC(=O)[C@H](Cc1ccc(O)cc1)NC(=O)CNC(=O)[C@H](CCC(=O)O)NC2=O` [compound 48], in assay [1], the Nav1.4/Nav1.7 stood at 3. Moreover, the Nav1.5/Nav1.7 in assay [2] was determined as 61.

Regarding `CC[C@H](C)[C@H](NC(=O)[C@H](CCCCN)NC(=O)[C@H](CCCNC(=N)N)NC(=O)[C@@H]1CSSC[C@@H]2NC(=O)[C@H](C)NC(=O)[C@H](CCCNC(=N)N)NC(=O)[C@H](CCCCN)NC(=O)[C@H](CO)NC(=O)[C@H](CC(=O)O)NC(=O)[C@@H]3CSSC[C@H](NC(=O)[C@H](CCCNC(=N)N)NC(=O)[C@H](CC(C)C)NC(=O)CNC(=O)[C@H](CCC(=O)O)NC(=O)[C@H](CSSC[C@H](NC(=O)[C@@H](N)Cc4ccc(O)cc4)C(=O)N[C@@H](CCC(N)=O)C(=O)N[C@@H](CCCCN)C(=O)N[C@@H](Cc4c[nH]c5ccccc45)C(=O)N[C@@H](CCSC)C(=O)N[C@@H](Cc4c[nH]c5ccccc45)C(=O)N[C@@H]([C@@H](C)O)C(=O)N3)NC2=O)C(=O)N[C@@H](CCCCN)C(=O)N[C@@H](CC(C)C)C(=O)N[C@@H](Cc2c[nH]c3ccccc23)C(=O)N1)C(=O)N[C@@H](CCC(=O)O)C(N)=O` [compound 70], the IC50 in assay [1] (setting [4]) is 11.3 µM; in assay [2] it was over 10 µM. The Nav1.4/Nav1.7 in assay [1] (ratio of PX IC50 values) is listed as 43. In addition, in assay [2] (ratio of PX IC50 values), the Nav1.5/Nav1.7 was over 38.

For the compound `CCCC[C@@H]1NC(=O)[C@H](Cc2c[nH]c3ccccc23)NC(=O)[C@H](CCCCN)NC(=O)[C@H](CCC(N)=O)NC(=O)[C@@H](NC(=O)[C@H](Cc2ccc(O)cc2)NC(=O)[C@@H](N)CC(C)C)CSSC[C@@H]2NC(=O)[C@@H]3CSSC[C@@H](C(=O)N[C@@H](CCCNC(=N)N)C(=O)N[C@@H](CCCCN)C(=O)N[C@H](C(=O)N[C@H](C(N)=O)[C@@H](C)CC)[C@@H](C)CC)NC(=O)[C@H](Cc4c[nH]c5ccccc45)NC(=O)[C@H](CC(C)C)NC(=O)[C@H](CCCCN)NC(=O)[C@H](CSSC[C@H](NC(=O)[C@H]([C@@H](C)O)NC(=O)[C@H](Cc4c[nH]c5ccccc45)NC1=O)C(=O)N[C@@H](CC(=O)O)C(=O)N[C@@H](CO)C(=O)N[C@@H](CCCCN)C(=O)N[C@@H](CCCNC(=N)N)C(=O)N[C@@H](C)C(=O)N3)NC(=O)[C@H](CCCNC(=N)N)NC(=O)[C@H](CC(C)C)NC(=O)CNC(=O)[C@H](CCC(=O)O)NC2=O` [compound 361], the Nav1.4/Nav1.7 in assay [1] (ratio of PX IC50 values) was found to be 0. Moreover, in assay [2] (ratio of PX IC50 values), the Nav1.5/Nav1.7 turned out to be 0.

In the case of `CCCC[C@@H]1NC(=O)[C@H](Cc2c[nH]c3ccccc23)NC(=O)[C@H](CCCCN)NC(=O)[C@H](CCC(N)=O)NC(=O)[C@@H](NC(=O)[C@H](Cc2ccc(O)cc2)NC(=O)[C@@H](N)CCC)CSSC[C@@H]2NC(=O)[C@@H]3CSSC[C@@H](C(=O)N[C@@H](CCCNC(=N)N)C(=O)N[C@@H](CCCCN)C(=O)N[C@H](C(=O)N[C@H](C(N)=O)[C@@H](C)CC)[C@@H](C)CC)NC(=O)[C@H](Cc4c[nH]c5ccccc45)NC(=O)[C@H](CC(C)C)NC(=O)[C@H](CCCCN)NC(=O)[C@H](CSSC[C@H](NC(=O)[C@H]([C@@H](C)O)NC(=O)[C@H](Cc4c[nH]c5ccccc45)NC1=O)C(=O)N[C@@H](CC(=O)O)C(=O)N[C@@H](CO)C(=O)N[C@@H](CCCCN)C(=O)N[C@@H](CCCNC(=N)N)C(=O)N[C@@H](C)C(=O)N3)NC(=O)[C@H](CCCNC(=N)N)NC(=O)[C@H](CC(C)C)NC(=O)CNC(=O)[C@H](CCC(=O)O)NC2=O` [compound 369], the IC50 in assay [1] (setting [4]) was found to be 0.0116 µM; in assay [2], 0.49 µM.

For `CCCC[C@@H]1NC(=O)[C@H](Cc2c[nH]c3ccccc23)NC(=O)[C@H](CCCCN)NC(=O)[C@H](CCC(N)=O)NC(=O)[C@@H](NC(=O)[C@H](Cc2ccc(O)cc2)NC(=O)[C@H](N)CC(C)C)CSSC[C@@H]2NC(=O)[C@@H]3CSSC[C@@H](C(=O)N[C@@H](CCCNC(=N)N)C(=O)N[C@@H](CCCCN)C(=O)N[C@H](C(=O)N[C@H](C(N)=O)[C@@H](C)CC)[C@@H](C)CC)NC(=O)[C@H](Cc4c[nH]c5ccccc45)NC(=O)[C@H](CC(C)C)NC(=O)[C@H](CCCCN)NC(=O)[C@H](CSSC[C@H](NC(=O)[C@H]([C@@H](C)O)NC(=O)[C@H](Cc4c[nH]c5ccccc45)NC1=O)C(=O)N[C@@H](CC(=O)O)C(=O)N[C@@H](CO)C(=O)N[C@@H](CCCCN)C(=O)N[C@@H](CCCNC(=N)N)C(=O)N[C@@H](C)C(=O)N3)NC(=O)[C@H](CCCNC(=N)N)NC(=O)[C@H](CC(C)C)NC(=O)CNC(=O)[C@H](CCC(=O)O)NC2=O` [compound 373], the IC50 in assay [1] (setting [4]) is 0.0287 µM; in assay [2], 0.41 µM. Besides, the Nav1.4/Nav1.7 in assay [1] (ratio of PX IC50 values) turned out to be 190.

Regarding `C#CC[C@H](N)C(=O)NCCCC[C@@H]1NC(=O)[C@H](CCCNC(=N)N)NC(=O)[C@H](CCCCN)NC(=O)[C@H](CO)NC(=O)[C@H](CC(=O)O)NC(=O)[C@@H]2CSSC[C@@H]3NC(=O)[C@H](CCCNC(=N)N)NC(=O)[C@H](CC(C)C)NC(=O)CNC(=O)[C@H](CCC(=O)O)NC(=O)[C@H](CSSC[C@H](NC(=O)[C@H](Cc4ccc(O)cc4)NC(=O)[C@@H](N)CCC)C(=O)N[C@@H](CCC(N)=O)C(=O)N[C@@H](CCCCN)C(=O)N[C@@H](Cc4c[nH]c5ccccc45)C(=O)N[C@@H](CCCC)C(=O)N[C@@H](Cc4c[nH]c5ccccc45)C(=O)N[C@@H]([C@@H](C)O)C(=O)N2)NC(=O)[C@H](CSSC[C@@H](C(=O)N[C@@H](CCCNC(=N)N)C(=O)N[C@@H](CCCCN)C(=O)N[C@@H](CCC(=O)O)C(=O)N[C@H](C(N)=O)[C@@H](C)CC)NC(=O)[C@H](Cc2c[nH]c4ccccc24)NC(=O)[C@H](CC(C)C)NC(=O)[C@H](CCCCN)NC3=O)NC1=O` [compound 435], the IC50 came out at 0.217 µM in assay [1] (tonic block) and 0.00219 µM in assay [3]. Also, the Nav1.4/Nav1.7 in assay [1] (ratio of PX tonic IC50 values) turned out to be 99.

With `C#CC[C@H](N)C(=O)NCCCC[C@@H]1NC(=O)[C@H](CCCNC(=N)N)NC(=O)[C@H](CCCCN)NC(=O)[C@H](CO)NC(=O)[C@H](CC(=O)O)NC(=O)[C@@H]2CSSC[C@@H]3NC(=O)[C@H](CCCNC(=N)N)NC(=O)[C@H](CC(C)C)NC(=O)CNC(=O)[C@H](CCC(=O)O)NC(=O)[C@H](CSSC[C@H](NC(=O)[C@H](Cc4ccc(O)cc4)NC(=O)[C@@H](N)CCC)C(=O)N[C@@H](CCC(N)=O)C(=O)N[C@@H](CCCCN)C(=O)N[C@@H](Cc4c[nH]c5ccccc45)C(=O)N[C@@H](CC(C)C)C(=O)N[C@@H](Cc4c[nH]c5ccccc45)C(=O)N[C@@H]([C@@H](C)O)C(=O)N2)NC(=O)[C@H](CSSC[C@@H](C(=O)N[C@@H](CCCNC(=N)N)C(=O)N[C@@H](CCCCN)C(=O)N[C@H](C(=O)N[C@H](C(N)=O)[C@@H](C)CC)[C@@H](C)CC)NC(=O)[C@H](Cc2c[nH]c4ccccc24)NC(=O)[C@H](CC(C)C)NC(=O)[C@H](CCCCN)NC3=O)NC1=O` [compound 438], the IC50 is 0.0161 µM in assay [1] (tonic block); 0.00238 µM and 0.00157 µM in assay [3]. For the same compound, the Nav1.4/Nav1.7 in assay [1] (ratio of PX tonic IC50 values) came to 7.
